Common to all, as to type: functional
Common to all, as to conditions: read-out: Activity

For one test, the system named is U-251. The test can be described thus: Growth inhibition of human U251 cells assessed as cell growth at 10 nM relative to untreated control.
The test system of another test is SK-OV-3. The test can be described thus: Growth inhibition of human SKOV3 cells assessed as cell growth at 1 uM relative to untreated control.
The next test relates to 786-0. The test can be described thus: Growth inhibition of human 786-0 cells assessed as cell growth at 1 uM relative to untreated control.
The next test deals with M14. The test can be described thus: Growth inhibition of human M14 cells assessed as cell growth at 1 uM relative to untreated control.
The test system of a further test is SF-539. The test can be described thus: Growth inhibition of human SF539 cells assessed as cell growth at 1 uM relative to untreated control.

Structures are written as SMILES.

Consider `COc1ccc2c(c1)[nH]c1c(C)c(OS(=O)(=O)c3cccc4c(N(C)C)cccc34)ccc12`, for which, in the test with U-251, the growth at 0.01 µM was determined as 98%. Besides, the growth at 1 µM in the test with SK-OV-3 is 32%; in the test on 786-0, 30%; with M14, 29%; in the test on SF-539, -30%.

(Values after ChEMBL document CHEMBL1157638, “Fluorescent epigenetic small molecule induces expression of the tumor suppressor ras-association domain family 1A and inhibits human prostate xenograft” (J Med Chem, 2010).)
